Results as given in patent publication US20190255011A1, “INHIBITION OF TUMOUR CELL MIGRATION” (GW Pharma Limited, priority 2004, published 2019).

Tests used:
[1] = test system: U87 human glioma cells; test: cell migration assay with pre-treatment by CB1 and CB2 receptor antagonists; format: cell-based; conditions: antagonist 0.1 μM and 1 μM, 30 minutes pre-treatment, then CBD 6 μM
Protocol: In order to determine whether the CBD-induced inhibition of cell migration as described in Example 1 above was dependant on the stimulation of these receptors the cell migration assay was performed with specific antagonists selective to CB1 and CB2 receptors. These are SR141716A and SR144528 respectively.
U87 human glioma cells were firstly pre-treated with the antagonists for 30 minutes and then treated with the CBD for an additional 30 minutes before seeding in the upper chamber of the Boyden chamber.
The cell migration assay was performed using a CBD concentration of 6 μM (shown in Example 1 to inhibit 50% migration. The CB1 and CB2 receptor antagonists were tested at concentrations of 0.1 μM and 1 μM, at these concentrations cell viability was not affected.

[2] = test system: U87 human glioma cells; test: cell migration assay in modified Boyden chamber; format: cell-based
Protocol: Cannabidiol (CBD) in the form of a botanical drug substance was dissolved in ethanol to a concentration of 100 mM this was stored at −20° C. until required.
Before use the CBD was further diluted with tissue culture medium to the desired concentration, ensuring that the concentration of ethanol was below 0.001%.
U87 human glioma cells were used throughout this experiment. The cells were maintained at 37° C. in a humidified atmosphere with 5% CO2 and 95% air.
Cells were cultured in a 75 cm^2 culture flask in Dulbecco's Modified Eagle Medium (DMEM), which had been supplemented with 4 mM L-glutamine, 100 units/ml penicillin, […], 1% sodium pyruvate, 1% non-essential amino acids and 10% heat-inactivated fetal bovine serum.
A cell migration assay was undertaken with the U87 cells in a 48 well, modified Boyden chamber in which upper and lower compartments were separated by a polycarbonate filter with a pore diameter of 8 μm coated with 15 μg/ml of fibronectin. Conditioned medium (CM) served as a chemoattractant. The CM was made by incubating a subconfluent culture of U87 cells with complete medium for 3 days.
The coated filter was placed over the bottom chamber, which contained the conditioned medium. Serum-free medium was used as a negative control.
U87 cells were treated with either CBD or vehicle for 30 minutes and then seeded in the upper chamber at a concentration of 3×10^4 cells per well and incubated for 6 hours at 37° C.
After the incubation the non-migrated cells on the upper surface of the filter were removed by scraping and the migrated cells on the lower side of the filter were stained with Diff-Quick Stain. Between 5 and 8 unit fields per filter were counted at 400× magnification.
As is shown in FIG. 1 cells were exposed to an increased concentration of CBD in a range starting from 0.01 μM to 9 μM and their migration was evaluated after 6 hours. The degree of inhibition of cell migration is expressed as a percentage of inhibition versus vehicle treatment (maximal stimulation).

[3] = test system: U87 human glioma cells; test: cell viability at the concentrations used in the migration assay; format: cell-based; conditions: range of CBD concentrations used (0.01 μM to 9 μM)
[4] = test system: U87 human glioma cell line; conditions: cited from earlier work
[5] = test system: U373 human glioma cell line; conditions: cited from earlier work
[6] = test system: U87 human glioma cells subcutaneously implanted to nude mice; conditions: cited from earlier work

| Molecule | effect of antagonist pre-treatment on CBD-induced inhibition of migration [1] | inhibition of migration ([2]; CBD added to culture medium of U87 cells) | inhibition at 6 µM ([2]; Homo sapiens, Glioma cell, CBD concentration of 6 μM) | IC50 ([2]; Homo sapiens, U-87 MG, U87 cells, CBD 0.01 μM to 9 μM, migration evaluated after 6 hours, versus vehicle treatment, read-out: IC50 of inhibition of cell migration) | cell viability [3] | anti-proliferative effects in-vitro [4] | anti-proliferative effects in-vitro [5] | anti-proliferative effects in-vivo [6] |
| --- | --- | --- | --- | --- | --- | --- | --- | --- |
| SR144528 | not prevented |  |  |  |  |  |  |  |
| Cc1c(C(=O)NN2CCCCC2)nn(-c2ccc(Cl)cc2Cl)c1-c1ccc(Cl)cc1 [SR141716] | not prevented |  |  |  |  |  |  |  |
| C=C(C)[C@@H]1CCC(C)=C[C@H]1c1c(O)cc(CCCCC)cc1O [CBD, cannabidiol] |  | concentration-dependant inhibition of migration | 50% | 5.05 ± 1.1 µM | did not alter cell viability | anti-proliferative effects | anti-proliferative effects | anti-proliferative effects |
